{
  "source": "paper PMC9986306",
  "about": "“Beyond CBD: Inhibitory effects of lesser studied phytocannabinoids on human voltage-gated sodium channels” (Frontiers in Physiology, 2023)",
  "key": {"[1]": {"tested_on": "Scn1a+/− mouse model of DS", "design": "method as in Anderson et al., 2021b", "conditions": "monotherapy, ref Anderson et al., 2021b; cited from earlier work"}, "[2]": {"tested_on": "NaV1.1, NaV1.2, NaV1.6 and NaV1.7 channels", "assay": "Planar patch-clamp, IC50 values summarised across the four isoforms", "format": "cell-based, human", "conditions": "range over NaV1.1, NaV1.2, NaV1.6, NaV1.7; read-out: IC50 values determined here (range over isoforms)", "description": "(§1) HEK293T cells stably expressing SCN1A or SCN2A and CHO cells stably expressing SCN8A or SCN9A were maintained as previously described ([Richards et al., 2018]; [Milligan et al., 2022]).\nPatch-clamp recordings were made using a Patchliner® (Nanion Technologies, Munich, Germany) in the whole-cell configuration as previously described ([Richards et al., 2018]; [Milligan et al., 2022]). Briefly, cells were prepared in suspension at a density of 1 × 10^6-5 × 10^7 cells/mL. The external recording solution comprised (in mM): 140 NaCl, 4 KCl, 1 MgCl2, 2 CaCl2, 5 D-glucose, 10 HEPES, pH 7.4 with NaOH, ∼295 mOsm. The internal recording solution comprised (in mM): 50 CsCl, 60 CsF, 10 NaCl, 20 EGTA, 10 HEPES, pH 7.2 with CsOH, ∼285 mOsm. Medium single-hole planar NPC-16 chips with an average resistance of ∼2.5 MΩ were used. Chip and whole-cell capacitance were fully compensated, and 50% series resistance compensation applied. Recordings were acquired at 50 kHz with the low pass filter set to 10 kHz in PATCHMASTER (HEKA Instruments, NY, United States) and performed at 27°C. Offline analysis was performed using Microsoft Excel, MatLab R2019a (MathWorks) and GraphPad Prism 8 (Molecular Devices). […]"}, "[3]": {"target": "T1, human NaV1.2 channel (SCN2A, HEK293T cells) (Homo sapiens, UniProt Q99250)", "T1 construct": "expressed in transfected cells", "T1 sequence (Q99250 whole entry)": "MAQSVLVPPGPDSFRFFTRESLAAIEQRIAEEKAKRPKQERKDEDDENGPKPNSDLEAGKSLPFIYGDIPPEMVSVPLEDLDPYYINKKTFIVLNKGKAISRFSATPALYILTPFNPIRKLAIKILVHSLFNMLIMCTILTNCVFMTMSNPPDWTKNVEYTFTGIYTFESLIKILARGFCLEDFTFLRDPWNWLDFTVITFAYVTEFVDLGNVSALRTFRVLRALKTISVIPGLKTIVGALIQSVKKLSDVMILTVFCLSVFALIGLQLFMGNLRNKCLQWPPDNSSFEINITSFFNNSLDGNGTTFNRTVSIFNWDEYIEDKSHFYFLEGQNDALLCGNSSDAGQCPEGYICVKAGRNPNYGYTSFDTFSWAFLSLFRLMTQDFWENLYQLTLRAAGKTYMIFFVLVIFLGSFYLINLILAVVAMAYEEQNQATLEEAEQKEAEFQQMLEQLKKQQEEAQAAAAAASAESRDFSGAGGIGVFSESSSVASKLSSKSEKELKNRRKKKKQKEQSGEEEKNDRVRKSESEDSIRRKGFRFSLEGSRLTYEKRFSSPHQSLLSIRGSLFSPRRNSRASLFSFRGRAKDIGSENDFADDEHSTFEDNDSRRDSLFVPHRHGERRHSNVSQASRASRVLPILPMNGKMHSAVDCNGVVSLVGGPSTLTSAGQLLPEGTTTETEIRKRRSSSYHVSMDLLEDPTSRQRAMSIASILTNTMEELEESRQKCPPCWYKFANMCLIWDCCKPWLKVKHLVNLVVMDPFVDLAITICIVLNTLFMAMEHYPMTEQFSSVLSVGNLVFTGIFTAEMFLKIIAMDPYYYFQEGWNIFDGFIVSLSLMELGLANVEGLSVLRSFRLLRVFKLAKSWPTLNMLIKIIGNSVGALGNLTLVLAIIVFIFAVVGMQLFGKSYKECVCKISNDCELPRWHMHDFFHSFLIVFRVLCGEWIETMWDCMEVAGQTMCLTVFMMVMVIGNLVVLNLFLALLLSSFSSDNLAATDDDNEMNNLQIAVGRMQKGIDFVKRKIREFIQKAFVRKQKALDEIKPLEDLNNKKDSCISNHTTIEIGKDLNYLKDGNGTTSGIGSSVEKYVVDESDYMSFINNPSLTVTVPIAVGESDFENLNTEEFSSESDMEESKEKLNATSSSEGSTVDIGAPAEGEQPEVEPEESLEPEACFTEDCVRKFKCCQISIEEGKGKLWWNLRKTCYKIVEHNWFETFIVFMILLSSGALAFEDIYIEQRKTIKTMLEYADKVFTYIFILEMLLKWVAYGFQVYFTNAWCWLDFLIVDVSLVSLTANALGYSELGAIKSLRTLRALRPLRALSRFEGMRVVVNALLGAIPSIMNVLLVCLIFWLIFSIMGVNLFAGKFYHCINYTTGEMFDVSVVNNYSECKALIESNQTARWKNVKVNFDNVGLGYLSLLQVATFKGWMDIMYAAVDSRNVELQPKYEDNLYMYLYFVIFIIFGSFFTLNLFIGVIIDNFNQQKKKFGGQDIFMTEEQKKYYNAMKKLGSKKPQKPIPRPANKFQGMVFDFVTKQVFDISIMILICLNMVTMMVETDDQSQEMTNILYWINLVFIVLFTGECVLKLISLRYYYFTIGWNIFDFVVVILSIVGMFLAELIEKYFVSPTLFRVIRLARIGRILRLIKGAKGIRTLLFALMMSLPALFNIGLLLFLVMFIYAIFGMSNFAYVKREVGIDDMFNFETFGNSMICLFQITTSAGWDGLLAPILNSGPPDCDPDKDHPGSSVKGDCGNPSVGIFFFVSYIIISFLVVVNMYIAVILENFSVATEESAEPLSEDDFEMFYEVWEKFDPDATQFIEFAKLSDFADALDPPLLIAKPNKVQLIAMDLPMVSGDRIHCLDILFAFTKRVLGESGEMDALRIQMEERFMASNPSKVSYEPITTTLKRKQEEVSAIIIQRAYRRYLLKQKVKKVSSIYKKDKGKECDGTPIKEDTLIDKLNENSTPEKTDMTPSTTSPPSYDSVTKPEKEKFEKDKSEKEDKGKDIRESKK", "assay": "Planar patch-clamp, inhibition of peak sodium current (IC50 protocol)", "format": "cell-based", "conditions": "mean ± SEM", "description": "as §1\n(§2) Patch-clamp recordings were made using a Patchliner® (Nanion Technologies, Munich, Germany) in the whole-cell configuration as previously described ([Richards et al., 2018]; [Milligan et al., 2022]). Briefly, cells were prepared in suspension at a density of 1 × 10^6-5 × 10^7 cells/mL. The external recording solution comprised (in mM): 140 NaCl, 4 KCl, 1 MgCl2, 2 CaCl2, 5 D-glucose, 10 HEPES, pH 7.4 with NaOH, ∼295 mOsm. The internal recording solution comprised (in mM): 50 CsCl, 60 CsF, 10 NaCl, 20 EGTA, 10 HEPES, pH 7.2 with CsOH, ∼285 mOsm. Medium single-hole planar NPC-16 chips with an average resistance of ∼2.5 MΩ were used. Chip and whole-cell capacitance were fully compensated, and 50% series resistance compensation applied. Recordings were acquired at 50 kHz with the low pass filter set to 10 kHz in PATCHMASTER (HEKA Instruments, NY, United States) and performed at 27°C. Offline analysis was performed using Microsoft Excel, MatLab R2019a (MathWorks) and GraphPad Prism 8 (Molecular Devices).\n(§3) To determine half-maximal inhibitory concentrations (IC50), cells were held at −80 mV, stepped to −120 mV for 200 ms followed by 50 ms test depolarization to 0 mV every 2 s for 30 s in the presence of vehicle control (DMSO). The cells were then exposed to an individual phytocannabinoid (CBD, CBGA, CBDVA, CBG, CBCA or CBC) at concentrations between 0.1 and 100 μM, sequentially for 5 min. Currents for individual cells were averaged over 24 s periods directly before application and following a 5 min exposure of compound. Leak subtraction was applied before normalization of current amplitude. Normalized mean data were fit to the Hill equation."}, "[4]": {"target": "T2, human NaV1.6 channel (SCN8A, CHO cells) (Homo sapiens, UniProt Q9UQD0)", "T2 construct": "expressed in transfected cells", "T2 sequence (Q9UQD0 whole entry)": "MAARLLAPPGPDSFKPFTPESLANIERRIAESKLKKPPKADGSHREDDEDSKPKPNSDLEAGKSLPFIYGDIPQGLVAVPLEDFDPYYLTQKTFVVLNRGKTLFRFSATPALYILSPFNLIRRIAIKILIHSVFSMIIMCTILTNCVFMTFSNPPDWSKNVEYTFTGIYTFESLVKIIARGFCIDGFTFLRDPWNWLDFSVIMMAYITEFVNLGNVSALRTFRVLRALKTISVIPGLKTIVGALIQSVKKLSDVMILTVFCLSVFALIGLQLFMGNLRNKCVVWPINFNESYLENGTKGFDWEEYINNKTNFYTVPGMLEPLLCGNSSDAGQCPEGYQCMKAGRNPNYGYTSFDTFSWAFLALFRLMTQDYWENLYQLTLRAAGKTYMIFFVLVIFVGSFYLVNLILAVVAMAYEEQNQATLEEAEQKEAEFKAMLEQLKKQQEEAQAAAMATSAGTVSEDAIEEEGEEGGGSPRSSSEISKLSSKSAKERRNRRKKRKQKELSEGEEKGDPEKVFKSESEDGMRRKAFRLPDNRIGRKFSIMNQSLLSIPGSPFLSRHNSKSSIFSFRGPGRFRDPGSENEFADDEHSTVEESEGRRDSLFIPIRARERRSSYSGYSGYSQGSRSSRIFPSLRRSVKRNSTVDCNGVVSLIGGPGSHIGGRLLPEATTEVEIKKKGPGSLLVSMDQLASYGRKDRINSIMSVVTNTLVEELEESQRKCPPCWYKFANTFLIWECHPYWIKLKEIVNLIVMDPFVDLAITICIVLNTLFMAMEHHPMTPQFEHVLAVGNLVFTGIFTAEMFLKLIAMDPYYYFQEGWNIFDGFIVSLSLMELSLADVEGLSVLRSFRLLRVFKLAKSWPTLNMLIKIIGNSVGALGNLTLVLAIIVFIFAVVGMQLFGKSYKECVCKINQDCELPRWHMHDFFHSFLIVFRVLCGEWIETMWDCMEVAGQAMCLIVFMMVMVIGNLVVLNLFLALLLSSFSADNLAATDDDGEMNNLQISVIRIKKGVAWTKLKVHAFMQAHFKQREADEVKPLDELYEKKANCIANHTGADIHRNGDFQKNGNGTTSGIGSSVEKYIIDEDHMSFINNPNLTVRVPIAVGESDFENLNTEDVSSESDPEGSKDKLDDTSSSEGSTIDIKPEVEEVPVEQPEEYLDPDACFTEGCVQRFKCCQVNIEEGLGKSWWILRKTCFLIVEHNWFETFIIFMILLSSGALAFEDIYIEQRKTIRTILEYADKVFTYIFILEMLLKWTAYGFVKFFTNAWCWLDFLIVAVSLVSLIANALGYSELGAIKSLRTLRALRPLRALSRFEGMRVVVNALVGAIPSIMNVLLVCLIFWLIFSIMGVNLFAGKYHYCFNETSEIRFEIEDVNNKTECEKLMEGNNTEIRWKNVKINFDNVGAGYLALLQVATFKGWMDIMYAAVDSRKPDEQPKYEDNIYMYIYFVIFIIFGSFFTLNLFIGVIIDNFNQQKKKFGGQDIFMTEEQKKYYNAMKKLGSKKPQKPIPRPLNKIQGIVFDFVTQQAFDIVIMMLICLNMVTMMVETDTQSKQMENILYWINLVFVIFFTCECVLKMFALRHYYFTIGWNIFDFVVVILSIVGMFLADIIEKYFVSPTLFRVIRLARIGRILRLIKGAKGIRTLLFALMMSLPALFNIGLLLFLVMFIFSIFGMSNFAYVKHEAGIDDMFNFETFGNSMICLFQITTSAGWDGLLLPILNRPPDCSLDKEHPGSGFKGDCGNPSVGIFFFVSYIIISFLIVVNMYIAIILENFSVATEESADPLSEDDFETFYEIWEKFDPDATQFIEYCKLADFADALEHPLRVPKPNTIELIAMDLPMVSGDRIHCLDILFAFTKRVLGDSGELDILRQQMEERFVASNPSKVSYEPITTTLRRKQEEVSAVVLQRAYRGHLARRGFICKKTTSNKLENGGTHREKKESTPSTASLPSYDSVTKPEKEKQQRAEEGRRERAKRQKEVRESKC", "assay": "Planar patch-clamp, inhibition of peak sodium current (IC50 protocol)", "format": "cell-based", "conditions": "mean ± SEM", "description": "as §1, §2, §3"}, "[5]": {"target": "T3, human NaV1.1 channel (SCN1A, HEK293T cells) (Homo sapiens, UniProt P35498)", "T3 construct": "expressed in transfected cells", "assay": "Planar patch-clamp, inhibition of peak sodium current (IC50 protocol)", "format": "cell-based", "conditions": "mean ± SEM", "description": "as §1, §2, §3"}, "[6]": {"target": "T4, human NaV1.7 channel (SCN9A, CHO cells) (Homo sapiens, UniProt Q15858)", "T4 construct": "expressed in transfected cells", "assay": "Planar patch-clamp, inhibition of peak sodium current (IC50 protocol)", "format": "cell-based", "conditions": "mean ± SEM", "description": "as §1, §2, §3"}, "[7]": {"tested_on": "Scn1a+/− mouse model of DS", "design": "method as in Anderson et al., 2021a; Anderson et al., 2021b", "conditions": "Scn1a+/− mice, ref Anderson et al., 2021a, 2021b; cited from earlier work"}, "6-Hz acute seizure model": {"tested_on": "6-Hz acute seizure model", "design": "method as in Anderson et al., 2021b", "conditions": "monotherapy; ref Anderson et al., 2021b; cited from earlier work"}, "[8]": {"target": "T1, human NaV1.2 channel (SCN2A, HEK293T cells)", "assay": "Planar patch-clamp, biophysical properties (activation, SSFI, recovery from SSFI)", "format": "cell-based", "conditions": "change vs vehicle DMSO at IC50 concentration (CBD 18.4 μM, CBGA 14.7 μM, CBDVA 60 μM)", "description": "as §1, §2\nVoltage protocols were used, as previously described ([Richards et al., 2018]). Briefly, to study the voltage-dependence of activation, cells were held at −120 mV and depolarized to test potentials, in 5 mV increments, between −120 mV and +50 mV for 100 ms. To study steady-state fast inactivation, cells were held at conditioning pre-pulse potentials ranging from −120 mV to +30 mV in 5 mV increments from a holding potential of −120 mV and a test pulse at 5 mV for 20 ms. Recovery from fast inactivation was studied by pre-pulsing the cells to 0 mV from a holding potential of −120 mV for 50 ms, to fully inactivate channels. The voltage was then stepped back to the holding potential for variable interpulse intervals (ipi from 0 to 39 ms in 3 ms increments). To test channel availability, the voltage was stepped to 0 mV for 50 ms.\nTo examine the voltage-dependence of activation, normalized current-voltage (I-V) relationships were converted to conductance (G) using the following equation: G = I/(V−V r ) where Vr is the reversal potential for Na^+. The voltage-dependence of conductance and availability were normalized and fitted to a Boltzmann equation: G = 1/(1 + exp [(V−V 0.5)/a]), where a is the slope of the half-maximum, V is the potential of the given pulse, and V 0.5 is the potential for the half-maximal activation/inactivation. The time course of inactivation was fitted to a single exponential function I/Imax = I0+A*exp (-t-t0/τ)+C, where I0 is the non-inactivating component, Imax is the peak current, t is time, and A is the component for the time constant τ. Time constants were plotted against voltage and the data fitted with a decaying exponential equation Y = span*exp (−K*x)+plateau, where span is the starting point of the curve, K is the decay factor, plateau is the value the curve decays to, and x is time. To measure recovery from inactivation, normalized currents were plotted against ipi and data fitted with equation I/I max = 1-exp/(rc + x), where I max is maximal current; rc recovery rate constant; x is time. Peak current (I) was plotted as fractional recovery against the recovery period by normalizing to the maximum current (Imax) during the conditioning potentials."}},
  "note": "Marks after values point to notes of the source that are not given here.",
  "data": [
    {"molecule": "CCCCCc1cc(O)c(C/C=C(\\C)CCC=C(C)C)c(O)c1C(=O)O", "note": "[CBGA, cannabigerolic acid]", "values": [
      {"measurement": "Effect on spontaneous seizures", "setting": "[1]", "result": "proconvulsive effects"},
      {"measurement": "IC50", "setting": "[2]", "result": "12 to 16.4", "unit": "µM"},
      {"measurement": "Slope (Hill slope coefficient)", "setting": "[3]; NaV1.2 concentration-response", "result": "2.2 ± 0.4"},
      {"measurement": "IC50", "setting": "[3]; NaV1.2 peak current, 0.1–100 µM, 5 min exposure", "result": "14.7 ± 1.1", "unit": "µM"},
      {"measurement": "Slope (Hill slope coefficient)", "setting": "[4]; NaV1.6 concentration-response", "result": "2.3 ± 0.6"},
      {"measurement": "IC50", "setting": "[4]; NaV1.6 peak current, 0.1–100 µM, 5 min exposure", "result": "12 ± 1.2", "unit": "µM"},
      {"measurement": "Slope (Hill slope coefficient)", "setting": "[5]; NaV1.1 concentration-response", "result": "2.6 ± 0.5"},
      {"measurement": "IC50", "setting": "[5]; NaV1.1 peak current, 0.1–100 µM, 5 min exposure", "result": "13.6 ± 1.1", "unit": "µM"},
      {"measurement": "Slope (Hill slope coefficient)", "setting": "[6]; NaV1.7 concentration-response", "result": "2.5 ± 0.4"},
      {"measurement": "IC50", "setting": "[6]; NaV1.7 peak current, 0.1–100 µM, 5 min exposure", "result": "16.4 ± 1.1", "unit": "µM"},
      {"measurement": "Effect against hyperthermia-induced seizures", "setting": "[7]", "result": "anti-convulsant properties"},
      {"measurement": "Effect in 6-Hz acute seizure model", "setting": "6-Hz acute seizure model", "result": "proconvulsive effects"},
      {"measurement": "Inactivation △ V0.5 inact", "setting": "[8]; SSFI", "result": "−3.0 ± 1.5", "unit": "mV"},
      {"measurement": "Inactivation △ slope factor", "setting": "[8]; SSFI", "result": "2.5 ± 0.8**"},
      {"measurement": "Activation △ Slope factor", "setting": "[8]", "result": "1.9 ± 1.0"},
      {"measurement": "Activation △ V0.5 act", "setting": "[8]", "result": "1.8 ± 2.3", "unit": "mV"},
      {"measurement": "Inactivation △ τinact SSFI at 5 mV", "setting": "[8]", "result": "0.08 ± 0.1"}
    ]}
  ]
}
